Source: US5545642A, “Derivatives of 1-(2-fluorocyclopropyl)-quinolonecarboxylic acid and 1-(2-fluorocyclopropyl)-naphthridonecarboxylic acid” (Bayer Aktiengesellschaft, priority 1993, dated 1996)
Converted amounts (≈) assume the structure as drawn. Where two headings read alike, the source gives them in different places.

Experiments:
[1] = test system: Escherichia coli Neumann; test: MIC, agar serial dilution (Iso-Sensitest agar), Escherichia coli Neumann; assay type: cell-based; details: 37° C., about 20 hours
Description: (§1) The minimum inhibitory concentrations (MIC) were determined on Iso-Sensitest agar (Oxoid) using a serial dilution method. For each substance to be tested, a series of agar plates was prepared, which plates contained diminishing concentrations of the active compound produced in each case by a doubling dilution. The agar plates were inoculated using a Multipoint Inoculator (Denley). For the inoculation, overnight cultures of the pathogens were used which had been diluted beforehand such that each inoculation point contained approximately 10^4 colony-forming particles. The inoculated agar plates were incubated at 37° C. and the growth of organisms recorded after about 20 hours. The MIC value (μg/ml) indicates the lowest concentration of active compound at which no growth was visible to the naked eye. […] Example 8 from European Patent Application 520 277): […]

[2] = test system: Klebsiella sp. 8085; test: MIC, agar serial dilution (Iso-Sensitest agar), Klebsiella sp. 8085; assay type: cell-based; details: 37° C., about 20 hours
Description: as §1

[3] = test system: Morganella morganii 932; test: MIC, agar serial dilution (Iso-Sensitest agar), Morganella morganii 932; assay type: cell-based; details: 37° C., about 20 hours
Description: as §1

[4] = test system: Providencia sp. 12012; test: MIC, agar serial dilution (Iso-Sensitest agar), Providencia sp. 12012; assay type: cell-based; details: 37° C., about 20 hours
Description: as §1

[5] = test system: Micrococcus luteus 9341; test: MIC, agar serial dilution (Iso-Sensitest agar), Micrococcus luteus 9341; assay type: cell-based; details: 37° C., about 20 hours
Description: as §1

[6] = test system: Staphylococcus aureus ICB 25701; test: MIC, agar serial dilution (Iso-Sensitest agar), Staphylococcus aureus ICB 25701; assay type: cell-based; details: about 20 hours
Description: as §1

[7] = test system: Staphylococcus aureus 133; test: MIC, agar serial dilution (Iso-Sensitest agar), Staphylococcus aureus 133; assay type: cell-based; details: 37° C., about 20 hours
Description: as §1

[8] = test system: Enterococcus faecalis 27101; test: MIC, agar serial dilution (Iso-Sensitest agar), Enterococcus faecalis 27101; assay type: cell-based; details: 37° C., about 20 hours
Description: as §1

[9] = LD50 following intravenous administration to CFl mice (tolerance); assay type: in vivo; details: mouse, in vivo, iv
Description: (§2) The LD50 values listed in this table were determined following intravenous administration of the substances to CFl mice. The ID50 is understood to be the concentration of a substance at which the DNA synthesis in Chinese hamster ovary cells (CHO-KI) is inhibited by 50%. This value is determined following incubation of the corresponding substances in descending dilution steps for defined periods. For this purpose, the DNA synthesis in CHO-KI cells is determined in comparison to controls using fluorophotometric methods.

[10] = in vitro; assay type: cell-based, Chinese hamster; details: hamster, cho-k1 cells
Description: as §2

[11] = test system: CFl mice; test: LD50 following intravenous administration to CFl mice (tolerance); assay type: in vivo
Description: as §2

[12] = test system: Chinese hamster ovary cells (CHO-KI); test: in vitro; assay type: cell-based; details: cho-k1 cells
Description: as §2

[13] = Escherichia coli, 20 h, read-out: MIC
[14] = Micrococcus luteus, 9341, 20 h, read-out: MIC
[15] = ICB25701, 37° C., read-out: MIC

Row | SMILES | MIC [1, 13] [µg/mL] | MIC ([2]; read-out: MIC) [µg/mL] | MIC ([3]; read-out: MIC) [µg/mL] | MIC ([4]; read-out: MIC) [µg/mL] | MIC [5, 14] [µg/mL] | MIC [6, 15] [µg/mL] | MIC ([7]; read-out: MIC) [µg/mL] | MIC ([8]; read-out: MIC) [µg/mL] | LD50 [9] [mg/kg] | IC50 [10] [µg/mL] | LD50 [11] [mg/kg] | MIC [1] [µg/mL] | MIC [2] [µg/mL] | MIC [3] [µg/mL] | MIC [4] [µg/mL] | MIC [5] [µg/mL] | MIC ([6]; 37° C.) [µg/mL] | MIC [7] [µg/mL] | MIC [8] [µg/mL] | ID50 (concentration at which DNA synthesis is inhibited by 50%) [12] [µg/mL]
1 | CN1CCC2=C(C1)CN(c1c(F)cc3c(=O)c(C(=O)O)cn([C@@H]4C[C@@H]4F)c3c1F)C2 (relative stereo) [Example 1, 6,8-difluoro-1-(cis-2-fluorocyclopropyl)-1,4-dihydro-7-(5-methyl-2,3,4,5,6,7-hexahydro-1H-pyrrolo[3,4-c]pyridin-2-yl)-4-oxo-3-quinolinecarboxylic acid] | ≤ 0.015 | 0.06 (≈ 0.143 µM) | 0.03 (≈ 0.0715 µM) | 0.06 (≈ 0.143 µM) | 0.25 (≈ 0.596 µM) | 0.5 (≈ 1.19 µM) | 0.06 (≈ 0.143 µM) | 0.06 (≈ 0.143 µM) | 150 | 35 (≈ 83.5 µM) |  |  |  |  |  |  |  |  |  | 
2 | CN1CCC2=C(C1)CN(c1c(F)cc3c(=O)c(C(=O)O)cn([C@@H]4C[C@@H]4F)c3c1Cl)C2 (relative stereo) [Example 4, 8-chloro-6-fluoro-1-(cis-2-fluorocyclopropyl)-1,4-dihydro-7-(5-methyl-2,3,4,5,6,7-hexahydro-1H-pyrrolo[3,4-c]-pyridin-2-yl)-4-oxo-3-quinolinecarboxylic acid] | ≤ 0.015 | 0.06 (≈ 0.138 µM) | 0.06 (≈ 0.138 µM) | 0.06 (≈ 0.138 µM) | 0.125 (≈ 0.287 µM) | 0.25 (≈ 0.574 µM) | ≤ 0.015 | 0.06 (≈ 0.138 µM) |  |  |  |  |  |  |  |  |  |  |  | 
3 | CN1CCC2=C(C1)CN(c1c(F)cc3c(=O)c(C(=O)O)cn([C@@H]4C[C@@H]4F)c3c1F)C2 (single isomer, unassigned) [Example 2, (-)-6,8-difluoro-1-(cis-2-fluorocyclopropyl)-1,4-dihydro-7-(5-methyl-2,3,4,5,6,7-hexahydro-1H-pyrrolo[3,4-c]pyridin-2-yl)-4-oxo-3-quinolinecarboxylicacid] | 0.03 (≈ 0.0715 µM) | 0.06 (≈ 0.143 µM) | 0.06 (≈ 0.143 µM) | 0.06 (≈ 0.143 µM) | 0.25 (≈ 0.596 µM) | 0.5 (≈ 1.19 µM) | 0.06 (≈ 0.143 µM) | 0.06 (≈ 0.143 µM) |  | 40 (≈ 95.4 µM) | 200 |  |  |  |  |  |  |  |  | 
4 | CN1CCC2=C(C1)CN(c1c(F)cc3c(=O)c(C(=O)O)cn([C@@H]4C[C@@H]4F)c3c1F)C2 (single isomer, unassigned) [Example 3, (+)-6,8-difluoro-1-(cis-2-fluorocyclopropyl)-1,4-dihydro-7-(5-methyl-2,3,4,5,6,7-hexahydro-1H-pyrrolo[3,4-c]pyridin-2-yl)-4-oxo-3-quinolinecarboxylicacid] |  |  |  |  |  |  |  |  |  |  | 50 | ≤ 0.015 | 0.06 (≈ 0.143 µM) | 0.06 (≈ 0.143 µM) | 0.06 (≈ 0.143 µM) | 0.125 (≈ 0.298 µM) | 0.5 (≈ 1.19 µM) | 0.06 (≈ 0.143 µM) | 0.06 (≈ 0.143 µM) | 40 (≈ 95.4 µM)
5 | CN1CCC2=C(C1)CN(c1c(F)cc3c(=O)c(C(=O)O)cn(C4CC4)c3c1F)C2.Cl [Ref. 1, 1-cyclopropyl-6,8-difluoro-1,4-dihydro-7-(5-methyl-2,3,4,5,6,7-hexahydro-1H-pyrrolo[3,4-c]pyridin-2-yl)-4-oxo-3-quinolinecarboxylic acid hydrochloride, reference compound] | ≤ 0.015 | 0.06 | 0.03 | 0.125 | 0.5 | 1 | 0.6 | 0.125 | 50 | 1 |  |  |  |  |  |  |  |  |  | 
6 | CN1CCC2=C(C1)CN(c1c(F)cc3c(=O)c(C(=O)O)cn(C4CC4)c3c1Cl)C2 [Ref. 2, 8-chloro-1-cyclopropyl-6-fluoro-1,4-dihydro-7-(5-methyl-2,3,4,5,6,7-hexahydro-1H-pyrrolo[3,4-c]pyridin-2-yl)-4-oxo-3-quino-1-linecarboxylic acid, reference compound] | 0.03 (≈ 0.0718 µM) | 0.06 (≈ 0.144 µM) | 0.06 (≈ 0.144 µM) | 0.125 (≈ 0.299 µM) | 0.25 (≈ 0.598 µM) | 0.5 (≈ 1.2 µM) | 0.03 (≈ 0.0718 µM) | 0.06 (≈ 0.144 µM) | 50 | 16 (≈ 38.3 µM) |  |  |  |  |  |  |  |  |  | 
